Source: patent US20130040935A1, “CYCLIC KETO-ENOLS FOR THERAPY” (BAYER INTELLECTUAL PROPERTY GMBH, priority 2010, published 2013)
Read-outs that look alike come from different tables or passages of the source.

What was measured:
[1] = molecular target: T1, human ACC1 (acetyl-coenzyme A carboxylase alpha transcript variant 1) (Homo sapiens, UniProt Q13085); test: Human ACC1 enzyme assay, Assay B1 (ADP-Glo); format: biochemical
T1 construct: FLAG (C); made in house; host or cells: baculovirus-infected insect cells (Hi5)

[2] = molecular target: human ACC2 (acetyl-coenzyme A carboxylase 2) (Homo sapiens, UniProt O00763); test: Human ACC2 enzyme assay, Assay B2 (ADP-Glo);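 further: human ACC2 activity read as ADP product, detected by luciferase glow luminescence after residual ATP removal, enzyme near 2 ng/µl in linear range, detection steps at 22 °C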
Protocol: The hACC2-inhibitory action of the substances of the present invention was measured in the hACC2 assay described in the paragraphs below.
Essentially, the enzyme activity is measured by quantifying the adenosine diphosphate (ADP) formed as a byproduct of the enzyme reactions using the ADP-Glo™ detection system from Promega. In this test, initially the adenosine triphosphate (ATP) not consumed in the enzyme reaction is converted quantitatively with an adenylate cyclase (“ADP-GLO reagent”) into cAMP, the adenylate cyclase is then stopped and (“kinase detection reagent”) the ADP formed is subsequently converted into ATP, which is converted in a luciferase-based reaction into a glow luminescence signal.
The concentration of the hACC2 was adapted to the respective activity of the enzyme and adjusted such that the assay operated in the linear range. Typical concentrations were in the range of 2 ng/μl. […] The amount of light emitted was taken as a measure for the amount of ADP formed and thus for the enzyme activity of the hACC2.

MCF7 = test: Cell proliferation assay (CellTiter-Glo, 96 h), MCF7; format: cell-based; conditions: Homo sapiens
Protocol: In accordance with the invention, the substances were tested in cell-based assays for the ability of the substances of inhibiting tumour cell proliferation after a 96-hour incubation with the substance. Cell viability was tested using the CellTiter-Glo® luminescent cell viability assay (Promega). The cells were sown at a density of 2000-5000 cells/well (depending on the cell line) in 100 μl growth medium on 96-well microtitre plates. For each cell line examined, cells were sown on a separate plate to determine the luminescence at t=0 hours and t=96 hours. After overnight incubation at 37° C., the luminescence values for the t=0 samples were determined. The dose plates for the t=96 hours points in time were treated with substances diluted with growth medium. The cells were then incubated at 37° C. for 96 hours, and the luminescence values for the t=96 hours sample were then determined. For data analysis, the t=0 values were subtracted from the t=96 hour values for treated and untreated samples. The differences in luminescence in percent between substance-treated samples and control values were used to determine the growth inhibition in percent.
The substances were tested in the following cell lines which represent the stated indications in an exemplary manner: […]

[3] = Assay B1, read-out: ACC 1 (=B1) IC50
[4] = MCF7, Table 9a, 96-hour incubation
[5] = MCF7, Table 7, 96-hour incubation
[6] = Assay B1, ADP-Glo, read-out: ACC 1 (=B1) IC50

Sequence of human ACC2 (acetyl-coenzyme A carboxylase 2) (O00763 27-2458 limits assumed): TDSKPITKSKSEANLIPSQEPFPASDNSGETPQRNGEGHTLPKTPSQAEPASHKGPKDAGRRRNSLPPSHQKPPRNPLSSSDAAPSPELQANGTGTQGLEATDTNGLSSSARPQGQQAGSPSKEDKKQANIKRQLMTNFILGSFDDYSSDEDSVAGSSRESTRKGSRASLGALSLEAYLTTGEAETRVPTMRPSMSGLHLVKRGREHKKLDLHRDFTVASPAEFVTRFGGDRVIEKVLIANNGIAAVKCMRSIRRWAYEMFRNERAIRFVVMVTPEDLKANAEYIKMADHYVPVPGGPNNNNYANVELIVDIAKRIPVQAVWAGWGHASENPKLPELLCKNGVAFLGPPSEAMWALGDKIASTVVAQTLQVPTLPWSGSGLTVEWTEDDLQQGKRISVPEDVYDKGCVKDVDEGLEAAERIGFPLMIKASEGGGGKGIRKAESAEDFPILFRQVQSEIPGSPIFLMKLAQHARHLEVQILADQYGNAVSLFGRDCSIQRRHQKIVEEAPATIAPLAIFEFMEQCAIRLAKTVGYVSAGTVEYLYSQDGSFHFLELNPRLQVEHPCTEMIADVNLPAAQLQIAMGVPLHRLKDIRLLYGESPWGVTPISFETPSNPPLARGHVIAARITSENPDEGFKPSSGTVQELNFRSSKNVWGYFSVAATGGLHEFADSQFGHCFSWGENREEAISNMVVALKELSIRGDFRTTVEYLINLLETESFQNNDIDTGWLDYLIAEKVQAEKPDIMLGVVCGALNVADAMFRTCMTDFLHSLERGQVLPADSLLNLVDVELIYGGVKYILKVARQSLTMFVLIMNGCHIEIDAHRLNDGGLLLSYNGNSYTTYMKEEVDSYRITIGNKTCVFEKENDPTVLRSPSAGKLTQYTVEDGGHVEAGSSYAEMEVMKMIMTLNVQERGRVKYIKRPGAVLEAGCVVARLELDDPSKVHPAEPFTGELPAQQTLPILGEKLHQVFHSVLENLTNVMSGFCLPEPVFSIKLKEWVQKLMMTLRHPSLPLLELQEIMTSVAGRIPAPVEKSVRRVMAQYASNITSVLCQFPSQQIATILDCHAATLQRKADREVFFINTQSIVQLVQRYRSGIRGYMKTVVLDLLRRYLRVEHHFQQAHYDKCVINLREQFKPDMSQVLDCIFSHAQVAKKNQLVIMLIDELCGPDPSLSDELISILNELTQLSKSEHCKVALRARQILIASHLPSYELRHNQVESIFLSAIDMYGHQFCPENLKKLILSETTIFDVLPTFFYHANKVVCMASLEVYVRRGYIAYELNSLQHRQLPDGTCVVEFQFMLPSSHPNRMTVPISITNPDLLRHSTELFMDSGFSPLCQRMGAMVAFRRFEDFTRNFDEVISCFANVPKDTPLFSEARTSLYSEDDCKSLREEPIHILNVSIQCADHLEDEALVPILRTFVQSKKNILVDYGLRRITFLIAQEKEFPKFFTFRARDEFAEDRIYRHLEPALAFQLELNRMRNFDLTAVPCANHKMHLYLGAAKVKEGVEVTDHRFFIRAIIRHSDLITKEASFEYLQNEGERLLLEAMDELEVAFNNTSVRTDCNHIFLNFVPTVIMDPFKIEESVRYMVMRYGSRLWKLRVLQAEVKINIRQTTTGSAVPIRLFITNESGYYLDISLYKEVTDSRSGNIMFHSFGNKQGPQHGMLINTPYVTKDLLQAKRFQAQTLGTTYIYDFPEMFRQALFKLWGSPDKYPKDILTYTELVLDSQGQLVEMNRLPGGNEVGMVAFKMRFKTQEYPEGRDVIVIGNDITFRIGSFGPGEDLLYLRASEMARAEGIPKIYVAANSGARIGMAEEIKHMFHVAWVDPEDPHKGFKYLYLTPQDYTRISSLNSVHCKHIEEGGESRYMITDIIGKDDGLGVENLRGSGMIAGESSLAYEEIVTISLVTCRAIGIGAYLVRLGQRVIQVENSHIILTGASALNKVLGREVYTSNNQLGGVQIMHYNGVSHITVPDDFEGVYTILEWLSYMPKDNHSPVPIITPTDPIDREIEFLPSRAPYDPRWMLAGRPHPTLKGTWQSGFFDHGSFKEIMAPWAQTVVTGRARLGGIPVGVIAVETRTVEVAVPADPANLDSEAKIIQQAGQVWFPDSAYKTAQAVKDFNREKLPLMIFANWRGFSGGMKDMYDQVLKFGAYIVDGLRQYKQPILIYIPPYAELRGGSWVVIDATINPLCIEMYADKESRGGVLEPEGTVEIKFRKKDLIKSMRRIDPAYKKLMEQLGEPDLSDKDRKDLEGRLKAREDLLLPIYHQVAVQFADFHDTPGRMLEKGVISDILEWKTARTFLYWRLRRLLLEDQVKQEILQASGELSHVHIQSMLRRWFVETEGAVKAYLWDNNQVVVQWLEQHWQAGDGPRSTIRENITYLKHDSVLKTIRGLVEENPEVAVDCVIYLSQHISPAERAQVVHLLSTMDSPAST

Compound	IC50 [1, 3]	IC50 [2]	IC50 (MCF7; MCF7 cells)	IC50 (MCF7; [4])	IC50 (MCF7; [5])	IC50 [1, 6]	IC50 [1]
Cc1ccc(-c2ccc(C)c(C3=C(O)C4(CCCCC4)NC3=O)c2)cc1 [1-13, 3-(4,4′-dimethylbiphenyl-3-yl)-4-hydroxy-1-azaspiro[4.5]dec-3-en-2-one]	0.216 µM	> 20 µM			0.41 µM		
Cc1ccc(-c2ccc(Cl)cc2)cc1C1=C(O)C2(CCCCCC2)NC1=O [1-26, 3-(4′-chloro-4-methylbiphenyl-3-yl)-4-hydroxy-1-azaspiro[4.6]undec-3-en-2-one]	0.367 µM	3.09 µM			0.188 µM		
Cc1cc(C)c(-c2ccc(Cl)cc2)c(C)c1C1=C(O)C2(CCCCC2)OC1=O [2-6, 3-(4′-chloro-2,4,6-trimethylbiphenyl-3-yl)-4-hydroxy-1-oxaspiro[4.5]dec-3-en-2-one]		5.42 µM	0.724 µM			6.85 µM	
Cc1cc(C)c(-c2ccc(Cl)cc2)c(C)c1C1=C(O)C2(CCCCC2)CC1=O [6-9, 3-(4′-chloro-2,4,6-trimethylbiphenyl-3-yl)-4-hydroxyspiro[4.5]dec-3-en-2-one]		2.12 µM		1.52 µM			≥ 20 µM
Cc1ccc(-c2ccc(F)cc2)cc1C1=C(O)[C@]2(CC[C@@]3(CCCO3)CC2)OC1=O [2-28, (5r,8s)-3-(4′-fluoro-4-methylbiphenyl-3-yl)-4-hydroxy-1,9-dioxadispiro[4.2.4.2]tetradec-3-en-2-one]		4.6 µM	0.296 µM			0.128 µM	
CO[C@H]1CC[C@]2(CC1)NC(=O)C(c1cc(-c3ccc(F)c(Cl)c3)ccc1C)=C2O [1-43, (5s,8s)-3-(3′-chloro-4′-fluoro-4-methylbiphenyl-3-yl)-4-hydroxy-8-methoxy-1-azaspiro[4.5]dec-3-en-2-one]	4.93 µM	> 20 µM			1.22 µM		
Cc1cc(C)c(-c2ccc(Cl)cc2)cc1C1=C(O)C(C)OC1=O (stereo not drawn) [2-45, 3-(4′-chloro-4,6-dimethylbiphenyl-3-yl)-4-hydroxy-5-methylfuran-2(5H)-one]		17.5 µM	6.7 µM				1.83 µM
COCCC1CCC2(CC1)NC(=O)C(c1c(C)ccc(-c3ccc(Cl)cc3)c1C)=C2O (stereo not drawn) [1-57, 3-(4′-chloro-2,4-dimethylbiphenyl-3-yl)-4-hydroxy-8-(2-methoxyethyl)-1-azaspiro[4.5]dec-3-en-2-one]		1.68 µM			0.25 µM		1.29 µM
COCCC1CCCC2(C1)OC(=O)C(c1cc(-c3ccc(Cl)cc3)ccc1C)=C2O (stereo not drawn) [2-18, 3-(4′-chloro-4-methylbiphenyl-3-yl)-4-hydroxy-7-(2 methoxyethyl)-1-oxaspiro[4.5]dec-3-en-2-one]		12.2 µM	0.935 µM			0.276 µM	
Cc1ccc(-c2ccc(Cl)cc2)cc1C1=C(O)CN(C2CCCCC2)C1=O [1-22, 3-(4′-chloro-4-methylbiphenyl-3-yl)-1-cyclohexyl-4-hydroxy-1,5-dihydro-2H-pyrrol-2-one]	2.68 µM	16.3 µM			0.436 µM		
Cc1ccc(-c2ccc(Cl)cc2)cc1C1=C(O)[C@@]2(CC[C@H](OCC(C)C)C2)NC1=O (relative stereo) [1-49, rel-(5R,7R)-3-(4′-chloro-4-methylbiphenyl-3-yl)-4-hydroxy-7-(2-methylpropoxy)-1-azaspiro[4.4]non-3-en-2-one]	10.6 µM	> 20 µM			0.64 µM		
Cc1ccc(-c2ccc(Cl)cc2)cc1C1=C(O)C2(CCCCCCC2)NC1=O [1-23, 3-(4′-chloro-4-methylbiphenyl-3-yl)-4-hydroxy-1-azaspiro[4.7]dodec-3-en-2-one]	0.459 µM	2.33 µM			0.262 µM		
Cc1cc(C)c(-c2ccc(Cl)cc2)cc1C1=C(O)C2(CCSCC2)OC1=O [2-42, 3-(4′-chloro-4,6-dimethylbiphenyl-3-yl)-4-hydroxy-1-oxa-8-thiaspiro[4.5]dec-3-en-2-one]		1.56 µM	0.466 µM			0.246 µM	
CO[C@H]1CC[C@]2(CC1)NC(=O)C(c1c(C)ccc(-c3ccc(F)cc3)c1C)=C2O [1-45, (5s,8s)-3-(4′-fluoro-2,4-dimethylbiphenyl-3-yl)-4-hydroxy-8-methoxy-1-azaspiro[4.5]dec-3-en-2-one]		8.83 µM			0.626 µM		0.701 µM
Cc1cc(C)c(-c2ccc(Cl)cc2)c(C)c1C1=C(O)C2(CCCCCC2)OC1=O [2-48, 3-(4′-chloro-2,4,6-trimethylbiphenyl-3-yl)-4-hydroxy-1-oxaspiro[4.6]undec-3-en-2-one]		0.417 µM	0.762 µM			1.54 µM	
Cc1ccc(-c2ccc(F)cc2)cc1C1=C(O)C2(CCC(OCC(F)(F)F)CC2)NC1=O (stereo not drawn) [1-32, 3-(4′-fluoro-4-methylbiphenyl-3-yl)-4-hydroxy-8-(2,2,2-trifluoroethoxy)-1-azaspiro[4.5]dec-3-en-2-one]	0.516 µM	19 µM			0.107 µM		
Cc1ccc(-c2ccc(Cl)cc2)c(C)c1C1=C(O)C2(CCCCC2)OC1=O [2-4, 3-(4′-chloro-2,4-dimethylbiphenyl-3-yl)-4-hydroxy-1-oxaspiro[4.5]dec-3-en-2-one]		2.7 µM	0.624 µM			0.175 µM	
Cc1ccc(-c2ccc(C(F)(F)F)cc2)cc1C1=C(O)C2(CCCCC2)NC1=O [1-12, 4-hydroxy-3-[4 methyl-4′-(trifluoromethyl)biphenyl-3-yl]-1-azaspiro[4.5]dec-3-en-2-one]	0.871 µM	> 20 µM			0.322 µM		

The next lines start with results.

IC50 [1, 3]	IC50 [2]	IC50 (MCF7; MCF7 cells)	IC50 (MCF7; [4])	IC50 (MCF7; [5])	IC50 [1, 6]	Compound	IC50 [1]
11.2 µM	> 20 µM	1.72 µM				Cc1ccc(-c2ccc(Cl)cc2)cc1C1=C(O)C(C)(C)CNC1=O [9-2, 3-(4′-chloro-4-methylbiphenyl-3-yl)-4-hydroxy-5,5-dimethyl-5,6-dihydropyridin-2(1H)-one]	
0.523 µM	1.21 µM		0.605 µM			CCC1CCC2(CC1)CC(=O)C(c1cc(-c3ccc(Cl)cc3)ccc1C)=C2O (stereo not drawn) [6-5, 3-(4′-chloro-4-methylbiphenyl-3-yl)-8-ethyl-4-hydroxyspiro[4.5]dec-3-en-2-one]	
0.411 µM	19.7 µM		0.545 µM			Cc1ccc(-c2ccc(C)c(C3=C(O)C4(CCCCC4)CC3=O)c2)cc1 [6-1, 3-(4,4′-dimethylbiphenyl-3-yl)-4-hydroxyspiro[4.5]dec-3-en-2-one]	
6.47 µM	> 20 µM	1.46 µM				Cc1ccc(-c2ccc(Cl)cc2)cc1C1=C(O)C(C)(C)C(C)(C)NC1=O [9-14, 3-(4′-chloro-4-methylbiphenyl-3-yl)-4-hydroxy-5,5,6,6-tetramethyl-5,6-dihydropyridin-2(1H)-one]	
0.263 µM	3.23 µM		0.194 µM			Cc1ccc(-c2ccc(Cl)cc2Cl)cc1C1=C(O)C2(CCCCC2)CC1=O [6-2, 3-(2′,4′-dichloro-4-methylbiphenyl-3-yl)-4-hydroxyspiro[4.5]dec-3-en-2-one]	
2.34 µM	> 20 µM	1.53 µM				Cc1ccc(-c2ccc(Cl)cc2)cc1C1=C(O)C2(CCCCC2)CNC1=O [9-3, 4-(4′-chloro-4-methylbiphenyl-3-yl)-5-hydroxy-2-azaspiro[5.5]undec-4-en-3-one]	
1.16 µM	0.151 µM		0.254 µM			Cc1cc(C)c(-c2ccc(Cl)cc2)cc1C1=C(O)C2(CCCCC2)CC1=O [6-8, 3-(4′-chloro-4,6-dimethylbiphenyl-3-yl)-4-hydroxyspiro[4.5]dec-3-en-2-one]	
